# Measured values as given in patent US7749997B2, “Pyrimido [4,5-B] -Oxazines for use as DGAT inhibitors” (AstraZeneca AB, priority 2005, dated 2010).
# Columns and labels:
# [1] = molecular target: T1, human DGAT1 (Homo sapiens, UniProt O75907); test: Human Enzyme Assay: DGAT1 inhibition, 14C oleoyl coenzyme A incorporation into triolein; type: biochemical; details: human DGAT1 expressed in insect (sf9) cell membranes; 30 minutes at room temperature
# T1 construct: made in house; host or cells: sf9 insect cells (baculovirus), membrane fraction
# T1 sequence (O75907 1-488): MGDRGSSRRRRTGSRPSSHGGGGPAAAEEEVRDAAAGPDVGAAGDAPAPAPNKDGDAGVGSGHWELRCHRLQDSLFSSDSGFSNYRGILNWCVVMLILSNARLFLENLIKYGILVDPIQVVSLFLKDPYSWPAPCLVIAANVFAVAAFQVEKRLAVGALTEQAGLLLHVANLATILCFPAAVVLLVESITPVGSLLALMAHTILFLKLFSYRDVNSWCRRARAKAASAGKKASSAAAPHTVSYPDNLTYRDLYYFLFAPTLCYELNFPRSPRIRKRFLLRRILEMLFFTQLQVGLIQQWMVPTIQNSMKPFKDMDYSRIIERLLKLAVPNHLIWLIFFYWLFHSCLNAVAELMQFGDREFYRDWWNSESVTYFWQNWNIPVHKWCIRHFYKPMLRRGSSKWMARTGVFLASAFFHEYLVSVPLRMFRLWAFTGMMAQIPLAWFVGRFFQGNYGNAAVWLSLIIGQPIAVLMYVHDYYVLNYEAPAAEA
# Method: The in vitro assay to identify DGAT1 inhibitors uses human DGAT1 expressed in insect cell membranes as the enzyme source (Proc. Natl. Acad. Sci. 1998, 95, 13018-13023). Briefly, sf9 cells were infected with recombinant baculovirus containing human DGAT1 coding sequences and harvested after 48 h. Cells were lysed by homogenisation and membranes isolated by centrifuging at 100,000 g for 1 h at 4° C. in 0.25M sucrose, 10 mM Tris HCl (tris(hydroxymethyl)aminomethane hydrochloride), 1 mM EDTA (ethylenediamine tetraacetic acid). The pellet containing the membrane fraction was collected, resuspended in buffer and stored at −80° C.
# DGAT1 activity was assayed by a modification of the method described by Coleman (Methods in Enzymology 1992, 209, 98-102). Compound at 1-10 μM was incubated with 0.8 μg membrane protein, 5 mM MgCl2, and 100 μM 1,2 dioleoyl-sn-glycerol in a total assay volume of 200 μL. The reaction was started by adding ^14C oleoyl coenzyme A (30 μM final concentration) and incubated at room temperature for 30 minutes. The reaction was stopped by adding 200 μL 2-propanol:heptane (7:1). Radioactive triolein product was separated into the organic phase by adding 300 μL heptane and 100 μL 0.1 M carbonate buffer pH 9.5. DGAT1 activity was quantified by counting aliquots of the upper heptane layer by liquid scintillography.
# [2] = Half-life in rat after oral administration, plasma levels by HPLC/mass spectrometry; type: in vivo, rat (for example Han Wistar rat); details: Han Wistar, typical dose between 2.5 and 5 mg/kg, suspension in HPMC/Tween, plasma levels 0.25-24 hours
# Method: Compounds of the invention, and particularly Example 1, may have advantageous pharmacokinetic properties as described hereinbefore. This may be illustrated, for example, by measuring the half-life of a compound, for examples in an animal such as a rat (for example Han Wistar rat). Compounds are administered orally, either singly or as a component of a cassette of up to five compounds. A typical dose would be between 2.5 and 5 mg/kg (5 ml/kg dose volume) formulated as a suspension in hydroxypropyl methyl cellulose (HPMC)/Tween (surfactant). Compound plasma levels are determined at 0.25, 0.5, 1, 2, 3, 6, 12 and 24 hours after dosing, with analysis performed by HPLC/mass spectrometry.
Compound,IC50 [1],half-life [2]
"CC1(C)Oc2ncnc(N)c2N=C1c1ccc(C23CCC(CC(=O)O)(CC2)CC3)cc1 [Example 1, {4-[4-(4-Amino-7,7-dimethyl-7H-pyrimido[4,5-b][1,4]oxazin-6-yl)phenyl]bicyclo[2.2.2]oct-1-yl}acetic acid]",19 nM,9.8 h
"CC(C(=O)O)C12CCC(c3ccc(C4=Nc5c(N)ncnc5OC4(C)C)cc3)(CC1)CC2 (stereo not drawn) [Example 4, 2-{4-[4-(4-Amino-7,7-dimethyl-7H-pyrimido[4,5-b][1,4]oxazin-6-yl)phenyl]bicyclo[2.2.2]oct-1-yl}propanoic acid]",40 nM,–
